# Patent publication US6071884A, “Pharmaceutical compositions and therapeutic methods” (Kirin Beer Kabushiki Kaisha, priority 1992, dated 2000)
# How the values were obtained:
# [1] = system: marrow cells (mononuclear cell fraction); assay: Proliferation-stimulating effect on marrow cell of mouse (3H-TdR uptake); format: cell-based, mouse (BALB/c); details: percentage of control, 72 h
# Procedure, shortened: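 Mononuclear marrow cell fraction from 7-week-old female BALB/c mouse thigh bone, 1.5×10^6 cells/ml in 10% FCS RPMI 1640, cultured with test sample 72 h at 37° C. ³H-thymidine (0.5 μCi/well) then added for 8 h; nuclear ³H-TdR uptake counted by liquid scintillation.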
# [2] = Life-span-increasing effect on irradiation of a lethal dose of radiation; format: in vivo, mouse (BDF1); details: 10 mice/group, 9 Gy X-ray, 0.1 mg/kg i.v. days 0, 4, 8
# Method: Pharmacological Test 4: Life-Span-Increasing Effect on Irradiation of a Lethal Dose of Radiation
# An experiment was carried out by using 6 week old female BDF1 mice purchased from Japan SLC Co., Ltd., with 10 mice made one group.
# The entire bodies of the entire body of the mice were irradiated with 9 Gy of X-rays by using a Hitachi X-ray irradiator (MBR-1520R), and the day on which the X-ray was irradiated was referred to as "day 0".
# [3] = system: marrow cells (mononuclear cell fraction); assay: Effect on marrow cell of monkey (3H-TdR uptake); format: cell-based, croo monkey; details: Primates, 96 h, percentage of control, 4 days
# Method: Pharmacological Test 2: Effect on Marrow Cell of Monkey
# Marrow cells were prepared from the humerus of a croo monkey, and an MNF obtained by fractionation using a Lymphoprep (Nycomed Pharma AS, Oslo, Norway) was used in the following experiment.
# The MNF was suspended in an RPMI 1640 medium added with 10% blood plasma of a croo monkey to make its concentration 1×10^6 cells/ml.
# 10 μl/well of a sample with a predetermined concentration and 100 μl/well of the above-prepared MNF were placed on a round-bottomed 96 well plate, and incubated under the conditions of 37° C. and 5% CO2 for 4 days. Thereafter, 0.5 μCi/well of ^3 H-TdR was added. After 6 hours, the cells were harvested, and the amount of the ^3 H-TdR taken in the nuclei was measured by a liquid scintillation counter.
# [4] = Observation of body weight and general condition in monkey; format: in vivo, croo monkey; details: 1 mg/body i.v.; until 10 days after administration
# [5] = system: mononuclear cell fraction of human umbilical cord blood; assay: Proliferation-stimulating effect on mononuclear cell fraction of human umbilical cord blood (3H-TdR uptake); format: cell-based; details: 96 h, percentage of control, 4 days
# Description: Pharmacological Test 3: Proliferation-Stimulating Effect on Mononuclear Cell Fraction of Human Umbilical Cord Blood
# It is extremely difficult to obtain human marrow cells. In addition, human umbilical cord blood contains stem cells (Nakahata, T. & Ogwa, M., J. Clin. Inveet. 70, 1324-1328 (1982)), so that it can be a good source of hematopoietic stem/progenitor cell supply (H. E. Broxneyer et al, Proc. Natl. Acad. Sci. USA, 86, 3828-3832 (1989)). For these reasons, the effect on human was examined by using, instead of human marrow cells, human umbilical cord blood.
# To human umbilical cord blood was added an equal amount of RPMI 1640. This was placed on a Lymphoprep and centrifugal. The mononuclear cell fraction (MNF) thus obtained was used in the following experiment.
# The concentration of the MNF was adjusted to 1×10^6 cells/ml by using an RPMI 1640 added with 10% auto-blood plasma as a culture medium. 10 μl/well of a sample with a predetermined concentration and 100 μl/well of the above-prepared MNF were placed on a round-bottomed 96 well plate and incubated under the conditions of 37° C. and 5% CO2 for 4 days. Thereafter, 0.5 μCi/well of ^3 H-TdR was added. After 8 hour incubation, the cells were harvested, and the amount of the 3H-TdR taken in the nuclei was measured by a liquid scintillation counter.
# blood platelets [6] = assay: Blood-platelet-increasing effect upon normal mouse; format: in vivo, mouse (BDF1); details: normal mice; 6 days after 0.1 mg/kg i.v.; mean ± SD; vehicle per series 58.2, 63.0, 71.1
# Procedure, shortened: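 Female BDF1 mice, 6 weeks old (5 per group), received test sample at 0.1 mg/kg into the caudal vein. Six days later, fundus-vein blood was taken and platelets counted on a multi-channel hemocytometer, compared against vehicle-treated animals.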
# blood platelets [7] = assay: Thrombocytopenia-inhibiting effect in X-ray-irradiated mice; format: in vivo, mouse (BDF1); details: 10 days after 5 Gy X-ray; 0.1 mg/kg i.v. within 2 h; mean ± SD; vehicle per series 10.3, 6.8, 6.7; non-treatment 68.2, 96.9, 73.0
# Procedure, shortened: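 Female BDF1 mice, 6 weeks old, six per group, given 5 Gy whole-body X-ray, then 0.1 mg/kg i.v. via tail vein within 2 hours. Platelets counted by hemocytometer in fundus-vein blood 10 days later; untreated and vehicle groups run alongside.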
structure (smiles),measurement,setting,value
"CCCCCCCCCCCCCCCCCCCCCCCCCC(=O)N[C@@H](CO[C@H]1O[C@H](CO)[C@H](O)[C@H](O)[C@H]1O)[C@H](O)[C@H](O)CCCCCCCCCCCCCC [Compound 33, (2S,3S,4R)-1-(α-D-galactopyranosyloxy)-2-hexacosanoylamino-3,4-octadecanediol]",activity at 0.1 µg/mL,[1]; 10^-1 μg/ml,460%
same,activity at 0.01 µg/mL,[1]; 10^-2 μg/ml,330%
same,activity at 0.001 µg/mL,[1]; 10^-3 μg/ml,175%
same,Number of Surviving Mice,"[2]; day 10, controls per series 10, 10, 10, 10, 10, 8",10 mice
same,Number of Surviving Mice,"[2]; day 15, controls per series 8, 9, 5, 5, 7, 1",8 mice
same,Number of Surviving Mice,"[2]; day 20, controls per series 4, 5, 1, 2, 3, 0",7 mice
same,Number of Surviving Mice,"[2]; day 25, controls per series 3, 3, 0, 0, 2, 0",5 mice
same,Number of Surviving Mice,"[2]; day 30, controls per series 1, 1, 0, 0, 0, 0",5 mice
same,Number of Surviving Mice,"[2]; day 35, all controls 0",5 mice
same,Number of Surviving Mice,"[2]; day 40, all controls 0",5 mice
same,activity at 0.1 µg/mL,[3]; 10^-1 μg/ml,177%
same,activity at 0.01 µg/mL,[3]; 10^-2 μg/ml,194%
same,abnormality in body weight and in general condition,[4],no abnormality in body weight and in general condition was found
same,activity at 0.1 µg/mL,[5]; 10^-1 μg/ml,409%
same,activity at 0.01 µg/mL,[5]; 10^-2 μg/ml,256%
same,activity at 0.001 µg/mL,[5]; 10^-3 μg/ml,228%
same,Number of Blood Platelets,blood platelets [6],142.3 ± 10.2 × 10^4 /μl
same,Number of Blood Platelets,blood platelets [7],23.9 ± 6.5 × 10^4 /μl
